One data set deals with T1, human VPAC2 (Homo sapiens, UniProt P41587).
T1 construct: expressed in transfected cells
T1 sequence (P41587 24-438): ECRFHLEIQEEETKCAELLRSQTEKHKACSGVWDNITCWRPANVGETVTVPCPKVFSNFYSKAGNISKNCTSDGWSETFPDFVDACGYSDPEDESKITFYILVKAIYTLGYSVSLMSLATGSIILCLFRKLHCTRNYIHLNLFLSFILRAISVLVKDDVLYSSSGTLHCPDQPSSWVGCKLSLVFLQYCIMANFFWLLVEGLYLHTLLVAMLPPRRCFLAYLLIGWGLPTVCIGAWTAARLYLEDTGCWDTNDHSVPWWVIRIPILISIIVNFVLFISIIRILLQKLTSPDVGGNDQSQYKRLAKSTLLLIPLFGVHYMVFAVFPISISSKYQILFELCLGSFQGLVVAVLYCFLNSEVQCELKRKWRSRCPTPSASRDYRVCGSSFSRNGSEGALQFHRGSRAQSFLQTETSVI
The data set can be described thus: Alpha screen cAMP in vitro potency, human VPAC2 receptor. The format is cell-based. The conditions noted are these: cAMP generation; single result from two analyses performed in a single run; read-out: Human VPAC2 Receptor: Alpha Screen EC50. The essentials:
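Dissociated cells, 50,000 per point in stimulation buffer, were incubated with stimuli and AlphaScreen acceptor beads for 60 min.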

Data set [1] can be described thus: Rat serum stability studies (remaining active peptide by DiscoveRx cAMP on CHO-VPAC2 cells). The format is in vitro ADME. The method, then: Store the aliquot with aprotinin at 4° C. Store the aliquot without aprotinin at 37° C. […] […] Incubate in room temperature for 30 minutes. Remove the supernatant. […] Incubate on the shaker (300 rpm) for 1 hour. Proceed as normal with the DiscoveRx kit. Include cAMP standards in column 12. Determine EC50 values from the cAMP assay data.

Where a SMILES comes first, the peptide text is derived from it. Where no end group is shown, it is not given here. [ ]: non-standard residue; d: D form. The star is where a group is joined. Orn = NCCC[C@H](N)C(=O)O; Hexanoyl = CCCCCC(=O)*; Aib = CC(C)(N)C(=O)O; Mpa = O=C(O)CCS

Take `CCCCCC(=O)N[C@@H](Cc1c[nH]cn1)C(=O)N[C@@H](CO)C(=O)N[C@@H](CC(=O)O)C(=O)N[C@@H](C)C(=O)N[C@H](C(=O)N[C@@H](Cc1ccccc1)C(=O)N[C@H](C(=O)N[C@@H](CC(=O)O)C(=O)N[C@@H](CC(N)=O)C(=O)N[C@@H](Cc1ccc(O)cc1)C(=O)N[C@H](C(=O)N[C@@H](CCCNC(=N)N)C(=O)N[C@@H](CC(C)C)C(=O)N[C@@H](CCCNC(=N)N)C(=O)NC(C)(C)C(=O)N[C@@H](CCC(N)=O)C(=O)N[C@H](C(=O)N[C@@H](C)C(=O)N[C@@H](C)C(=O)NC(C)(C)C(=O)N[C@@H](CCCCN)C(=O)N[C@@H](Cc1ccc(O)cc1)C(=O)N[C@@H](CC(C)C)C(=O)N[C@@H](CCC(N)=O)C(=O)N[C@@H](CO)C(=O)N[C@H](C(=O)N[C@@H](CCCCN)C(=O)N1CCC[C@H]1C(=O)N[C@@H](CCCCN)C(=O)NCC(=O)NCC(=O)N1CCC[C@H]1C(=O)N[C@@H](CO)C(=O)N[C@@H](CO)C(=O)NCC(=O)N[C@@H](C)C(=O)N1CCC[C@H]1C(=O)N1CCC[C@H]1C(=O)N1CCC[C@H]1C(=O)N[C@@H](CO)C(=O)O)[C@@H](C)CC)C(C)C)[C@@H](C)O)[C@@H](C)O)C(C)C` [Agonist P350] (Hexanoyl-HSDAVFTDNYTRLR[Aib]QVAA[Aib]KYLQSIKPKGGPSSGAPPPS-OH; C-terminus assumed): at human VPAC2, the EC50 is 0.13 nM. Further, in data set [1], the “Rat Serum Stability (estimated purity in % after 18 hours)” value was 25.83%.
Turning to `CCCCCC(=O)N[C@@H](Cc1c[nH]cn1)C(=O)N[C@@H](CO)C(=O)N[C@@H](CC(=O)O)C(=O)N[C@@H](C)C(=O)N[C@H](C(=O)N[C@@H](Cc1ccccc1)C(=O)N[C@H](C(=O)N[C@@H](CC(=O)O)C(=O)N[C@@H](CC(N)=O)C(=O)N[C@@H](Cc1ccc(O)cc1)C(=O)N[C@H](C(=O)N[C@@H](CCCNC(=N)N)C(=O)N[C@@H](CC(C)C)C(=O)N[C@@H](CCCNC(=N)N)C(=O)N[C@@H](CCCNC(=N)N)C(=O)N[C@@H](CCC(N)=O)C(=O)N[C@H](C(=O)N[C@@H](C)C(=O)N[C@@H](C)C(=O)N[C@@H](CCCNC(=N)N)C(=O)N[C@@H](CCCCN)C(=O)N[C@@H](Cc1ccc(O)cc1)C(=O)N[C@@H](CC(C)C)C(=O)N[C@@H](CCC(N)=O)C(=O)N[C@@H](CO)C(=O)N[C@H](C(=O)N[C@@H](CCCNC(=N)N)C(=O)N[C@@H](CC(N)=O)C(=O)NCC(=O)NCC(=O)N1CCC[C@H]1C(=O)N[C@@H](CO)C(=O)N[C@@H](CO)C(=O)NCC(=O)N[C@@H](C)C(=O)N1CCC[C@H]1C(=O)N1CCC[C@H]1C(=O)N1CCC[C@H]1C(=O)N[C@@H](CO)C(=O)O)[C@@H](C)CC)C(C)C)[C@@H](C)O)[C@@H](C)O)C(C)C` [Agonist P216] (Hexanoyl-HSDAVFTDNYTRLRRQVAARKYLQSIRNGGPSSGAPPPS-OH; C-terminus assumed), the EC50 at human VPAC2 was found to be 0.11 nM. The “Rat Serum Stability (estimated purity in % after 18 hours)” value in data set [1] is recorded as 0.06%.
Turning to “Hexanoyl-HSDAVFTDNYTRLRKQVAAKKALQSIKNKRYGGPSSGAPPPS [Agonist P229]”, at human VPAC2, the EC50 amounted to 2.6 nM. For the same compound, the “Rat Serum Stability (estimated purity in % after 18 hours)” value in data set [1] is recorded as <5.00%.
Regarding `CCCCCC(=O)N[C@@H](Cc1c[nH]cn1)C(=O)N[C@@H](CO)C(=O)N[C@@H](CC(=O)O)C(=O)N[C@@H](C)C(=O)N[C@H](C(=O)N[C@@H](Cc1ccccc1)C(=O)N[C@H](C(=O)N[C@@H](CC(=O)O)C(=O)N[C@@H](CC(N)=O)C(=O)N[C@@H](Cc1ccc(O)cc1)C(=O)N[C@H](C(=O)N[C@@H](CCCN)C(=O)N[C@@H](CC(C)C)C(=O)N[C@@H](CCCNC(=N)N)C(=O)NC(C)(C)C(=O)N[C@@H](CCC(N)=O)C(=O)N[C@@H](CC(C)C)C(=O)N[C@@H](C)C(=O)N[C@@H](C)C(=O)NC(C)(C)C(=O)N[C@@H](CCCCN)C(=O)N[C@@H](Cc1ccc(O)cc1)C(=O)N[C@@H](CC(C)C)C(=O)N[C@@H](CCC(N)=O)C(=O)N[C@@H](CO)C(=O)N[C@H](C(=O)N[C@@H](CCCN)C(=O)N[C@@H](CC(N)=O)C(=O)N[C@@H](CCCN)C(=O)NCC(=O)NCC(=O)N1CCC[C@H]1C(=O)N[C@@H](CO)C(=O)N[C@@H](CO)C(=O)NCC(=O)N[C@@H](C)C(=O)N1CCC[C@H]1C(=O)N1CCC[C@H]1C(=O)N1CCC[C@H]1C(=O)N[C@@H](CO)C(=O)O)[C@@H](C)CC)[C@@H](C)O)[C@@H](C)O)C(C)C` [Agonist P364] (Hexanoyl-HSDAVFTDNYT[Orn]LR[Aib]QLAA[Aib]KYLQSI[Orn]N[Orn]GGPSSGAPPPS-OH; C-terminus assumed), at human VPAC2, the EC50 is 0.11 nM. Moreover, the “Rat Serum Stability (estimated purity in % after 18 hours)” value in data set [1] was 86.23%.
For “[Mpa]HSDAVFTDNYTRLLAKLALQKYLQSIKNKRYGGPSSGAPPPS [Agonist P205]”, the EC50 at human VPAC2 came out at 1.14 nM. For the same compound, the “Rat Serum Stability (estimated purity in % after 18 hours)” value in data set [1] is 35.02%.
Turning to `CCCCCC(=O)N[C@@H](Cc1c[nH]cn1)C(=O)N[C@@H](CO)C(=O)N[C@@H](CC(=O)O)C(=O)N[C@@H](C)C(=O)N[C@H](C(=O)N[C@@H](Cc1ccccc1)C(=O)N[C@H](C(=O)N[C@@H](CC(=O)O)C(=O)N[C@@H](CC(N)=O)C(=O)N[C@@H](Cc1ccc(O)cc1)C(=O)N[C@H](C(=O)N[C@@H](CCCNC(=N)N)C(=O)N[C@@H](CC(C)C)C(=O)N[C@@H](CCCNC(=N)N)C(=O)NC(C)(C)C(=O)N[C@@H](CCC(N)=O)C(=O)N[C@H](C(=O)N[C@@H](C)C(=O)N[C@@H](C)C(=O)NC(C)(C)C(=O)N[C@@H](CCCCN)C(=O)N[C@@H](Cc1ccc(O)cc1)C(=O)N[C@@H](CC(C)C)C(=O)N[C@@H](CCC(N)=O)C(=O)N[C@@H](CO)C(=O)N[C@H](C(=O)N[C@@H](CCCCN)C(=O)N[C@@H](CCCCN)C(=O)NCC(=O)NCC(=O)N1CCC[C@H]1C(=O)N[C@@H](CO)C(=O)N[C@@H](CO)C(=O)NCC(=O)N[C@@H](C)C(=O)N1CCC[C@H]1C(=O)N1CCC[C@H]1C(=O)N1CCC[C@H]1C(=O)N[C@@H](CO)C(=O)O)[C@@H](C)CC)C(C)C)[C@@H](C)O)[C@@H](C)O)C(C)C` [Agonist P351], at human VPAC2, the EC50 worked out at 0.11 nM. In addition, the “Rat Serum Stability (estimated purity in % after 18 hours)” value in data set [1] is 18.52%.
For `CCCCCC(=O)N[C@@H](Cc1c[nH]cn1)C(=O)N[C@@H](CO)C(=O)N[C@@H](CC(=O)O)C(=O)N[C@@H](C)C(=O)N[C@H](C(=O)N[C@@H](Cc1ccccc1)C(=O)N[C@H](C(=O)N[C@@H](CC(=O)O)C(=O)N[C@@H](CC(N)=O)C(=O)N[C@@H](Cc1ccc(O)cc1)C(=O)N[C@H](C(=O)N[C@@H](C)C(=O)N[C@@H](CC(C)C)C(=O)N[C@@H](CCCNC(=N)N)C(=O)NC(C)(C)C(=O)N[C@@H](CCC(N)=O)C(=O)N[C@H](C(=O)N[C@@H](C)C(=O)N[C@@H](C)C(=O)NC(C)(C)C(=O)N[C@@H](CCCCN)C(=O)N[C@@H](Cc1ccc(O)cc1)C(=O)N[C@@H](CC(C)C)C(=O)N[C@@H](CCC(N)=O)C(=O)N[C@@H](CO)C(=O)N[C@H](C(=O)N[C@@H](CCCN)C(=O)N[C@@H](CC(N)=O)C(=O)N[C@@H](CCCN)C(=O)NCC(=O)NCC(=O)N1CCC[C@H]1C(=O)N[C@@H](CO)C(=O)N[C@@H](CO)C(=O)NCC(=O)N[C@@H](C)C(=O)N1CCC[C@H]1C(=O)N1CCC[C@H]1C(=O)N1CCC[C@H]1C(=O)N[C@@H](CO)C(=O)O)[C@@H](C)CC)C(C)C)[C@@H](C)O)[C@@H](C)O)C(C)C` [Agonist P366], at human VPAC2, the EC50 amounted to 2.6 nM. Moreover, the “Rat Serum Stability (estimated purity in % after 18 hours)” value in data set [1] is 92.00%.

A word on the EC50: it is the concentration giving half of the maximal effect.

The values above are taken from patent US20080026996A1, “Selective Vpac2 Receptor Reptide Agonists” (ELI LILLY AND COMPANY, priority 2004, published 2008).
